In ChEMBL document CHEMBL1140846, “Convenient QSAR model for predicting the complexation of structurally diverse compounds with beta-cyclodextrins” (Bioorg Med Chem, 2009):

Assay: Binding affinity to beta cyclodextrin

SMILES | log Ks
c1ccc2scnc2c1 [BENZO[D]THIAZOLE] | 2.38
OC1CCCCCC1 [CYCLOHEPTANOL] | 3.23
OC[C@H](O)COCc1ccccc1 | 2.11
Cc1ccc(C)cc1 [P-XYLENE] | 2.38
CC(C)CC(C)O (stereo not given) | 2.04
O=C(O)c1ccccc1Nc1ccccc1 [FENAMIC ACID] | 2.89
NS(=O)(=O)c1cc2c(cc1C(F)(F)F)NC(Cc1ccccc1)NS2(=O)=O (stereo not given) [BENDROFLUMETHIAZIDE] | 1.9
CC(=O)c1ccc(O)cc1 [4-HYDROXYACETOPHENONE] | 2.18
CC(=O)Oc1cccc(C)c1 | 2.21
CCOc1cccc(O)c1 [1-hydroxy-3-ethoxybenzene] | 2.35
CCCCCc1ccc(OC(C)=O)cc1 | 3.8
OCCc1ccccc1 [PHENYLETHYL ALCOHOL] | 2.15
CCC(C)(C)c1ccc(O)cc1 | 4.7
Cc1cccc(Nc2ccccc2C(=O)O)c1C [MEFENAMIC ACID] | 2.49
COc1ccc(O)cc1 [MEQUINOL] | 2.21
O=C(O)c1ccc(O)cc1 [PARABEN] | 2.2
CC(C)Cc1cccc(O)c1 | 4.21
CC(=O)Oc1ccc([N+](=O)[O-])cc1 [4-NITROPHENYL ACETATE] | 2.13
OCc1ccc(O)cc1 [PARAHYDROXYBENZYL ALCOHOL] | 2.16
CC(=O)Oc1ccc(C(C)(C)C)cc1 | 3.85
CC(C)CCO [3-METHYLBUTANOL] | 2.25
OCCO [ETHYLENE GLYCOL] | -0.19

SMILES | log Ks
CC1=CC(=O)c2ccccc2C1=O [MENADIONE] | 2.27
c1ccccc1 [BENZENE] | 2.23
CC1(C)O[C@@H]2C[C@H]3[C@@H]4CCC5=CC(=O)C=C[C@]5(C)[C@@]4(F)[C@@H](O)C[C@]3(C)[C@]2(C(=O)CO)O1 [TRIAMCINOLONE ACETONIDE] | 3.51
CCCCC[C@H](O)/C=C/[C@H]1[C@H](O)CC(=O)[C@@H]1C/C=C\CCCC(=O)O [DINOPROSTONE] | 3.09
CC(C)c1ccc(O)cc1 | 3.58
c1ccc2ncccc2c1 [QUINOLINE] | 2.12
CC(=O)Nc1ccccc1 [ACETANILIDE] | 2.2
CCCCC(C)O (stereo not given) [2-HEXANOL] | 1.98
CC=O | -0.64
CCCc1ccc(O)cc1 | 3.55
Cc1cc(NS(=O)(=O)c2ccc(N)cc2)nc(C)n1 [SULFISOMIDINE] | 2.1
Oc1ccccc1 [PHENOL] | 1.98
CCCCc1ccc(OC(C)=O)cc1 | 3.62
CC(=O)Oc1cccc(F)c1 | 1.91
c1ccc2c(c1)oc1ccccc12 [DIBENZOFURAN] | 2.97
Oc1ccc(Cl)cc1 [PARACHLOROPHENOL] | 2.61
CCC1(CC)C(=O)NC(=O)NC1=O [BARBITAL] | 1.78
C#Cc1ccccc1 | 2.36
COC1=CC(=O)C[C@@H](C)[C@]12Oc1c(Cl)c(OC)cc(OC)c1C2=O [GRISEOFULVIN] | 1.47
OCc1ccccc1 [BENZYL ALCOHOL] | 1.71
CC(C)Oc1ccc(O)cc1 | 2.86
NS(=O)(=O)c1cc2c(cc1Cl)NCNS2(=O)=O [HYDROCHLOROTHIAZIDE] | 1.76

SMILES | log Ks
CCC(C)(O)CC | 2.15
c1ccc2c(c1)[nH]c1ccccc12 [CARBAZOLE] | 2.44
ClC(Cl)Cl [CHLOROFORM] | 1.43
CCC1(CCC(C)C)C(=O)NC(=O)NC1=O [AMOBARBITAL] | 3.07
CCc1ccc(O)cc1 | 2.69
N#Cc1ccccc1 [BENZONITRILE] | 2.23
C[C@]12C=CC(=O)C=C1CC[C@@H]1[C@@H]2[C@@H](O)C[C@@]2(C)[C@H]1CC[C@]2(O)C(=O)CO [PREDNISOLONE] | 3.56
CCOc1ccc(O)cc1 [1-hydroxy-4-ethoxybenzene] | 2.33
CC(=O)OCC(=O)[C@@]1(O)CC[C@H]2[C@@H]3CCC4=CC(=O)CC[C@]4(C)[C@H]3C(=O)C[C@@]21C [CORTISONE ACETATE] | 3.62
CCC(C)(C)O [AMYLENE HYDRATE] | 1.91
COc1cc(O)cc(OC)c1 | 2.34
CCCCc1cccc(O)c1 | 3.76
CC(=O)c1ccc(S(=O)(=O)NC(=O)NC2CCCCC2)cc1 [ACETOHEXAMIDE] | 2.94
O=C(O)/C=C/c1cccc(O)c1 | 2.56
Cc1cccc(O)c1 [METACRESOL] | 1.98
C=CCC1(CC=C)C(=O)NC(=O)NC1=O [ALLOBARBITAL] | 1.98
CCc1cccc(OC(C)=O)c1 | 2.68
CCc1cccc(O)c1 | 2.6
O=Cc1ccccc1 [BENZALDEHYDE] | 1.78
CCC(C)c1ccc(O)cc1 (stereo not given) | 4.18
CCCCc1ccc(O)cc1 | 3.97
CCOc1ccc(OC(C)=O)cc1 | 2.54

SMILES | log Ks
O=C1CN=C(c2ccccc2)c2cc([N+](=O)[O-])ccc2N1 [NITRAZEPAM] | 1.97
CCNCC [DIETHYLAMINE] | 1.36
CCCCOC(=O)c1ccc(O)cc1 [BUTYLPARABEN] | 3.39
CC(=O)Oc1ccc(C(C)C)cc1 | 2.88
C[C@]12CCC(=O)C=C1CC[C@@H]1[C@@H]2[C@@H](O)C[C@@]2(C)[C@H]1CC[C@]2(O)C(=O)CO [HYDROCORTISONE] | 3.6
CCOc1cccc(OC(C)=O)c1 | 2.49
Cc1ccnc(NS(=O)(=O)c2ccc(N)cc2)n1 [SULFAMERAZINE] | 1.97
CCOc1ccccc1 [PHENETOLE] | 2.49
CN1C(=O)CN=C(c2ccccc2F)c2cc(Cl)ccc21 [FLUDIAZEPAM] | 2.33
O=C(O)CC1CC2CCC1C2 (stereo not given) | 3.59
CC(=O)Oc1cccc(Cl)c1 | 2.44
COc1cc(NS(=O)(=O)c2ccc(N)cc2)nc(OC)n1 [SULFADIMETHOXINE] | 2.26
ClCc1ccccc1 [(CHLOROMETHYL)BENZENE] | 2.45
O=Cc1ccc(O)cc1 [4-HYDROXYBENZALDEHYDE] | 1.75
CCCCn1ccnc1 | 2.19
Oc1cc(Cl)cc(Cl)c1 | 2.07
O=C(O)c1ccccc1 [BENZOIC ACID] | 2.12
CC(=O)Oc1ccc(I)cc1 | 3
CCC(C)O (stereo not given) [BUTANOL] | 1.19
